Results reported in patent US6410539B1, “Imidazole derivatives and their use as farnesyl protein transferase inhibitors” (Astrazenca UK Limited, priority 1997, dated 2002).

Tests used:
[1] = target: T1, Farnesyl protein transferase (FPT) (Homo sapiens, UniProt P49354+P49356); test: In-vitro farnesyl protein transferase assay (farnesylation of Ki-ras with radiolabelled farnesyl pyrophosphate); assay type: biochemical; details: "in the above test"; FPT partially purified from human placenta, substrate Kras (CVIM C-terminal sequence)
T1 construct: partially purified from human placenta by ammonium sulphate fractionation; from tissue; host or cells: human placenta
Experimental: The following stock solutions were used and the assays were conducted in 96 well plates: TRIS Buffer (500 mM TRIS, 50 mM MgCl2.6H2O, pH=8.0); Farnesyl pyrophosphate (6.4 mg/ml); Aprotinin (1.9 mg/ml); Ki-ras (0.5 mg/ml, stored at −80° C.); Acid ethanol (850 ml absolute ethanol+150 ml concentrated HCl).
Farnesyl protein transferase (FPT) was partially purified from human placenta by ammonium sulphate fractionation followed by a single Q-Sepharose™ (Pharmacia, Inc) anion exchange chromatography essentially as described by Ray and Lopez-Belmonte (Ray K P and Lopez-Belmonte J (1992) Biochemical Society Transactions 20 494-497). The substrate for FPT was Kras (CVIM C-terminal sequence). The cDNA for oncogenic val12 variant of human c-Ki-ras-2 4B was obtained from the plasmid pSW11-1 (ATCC). This was then subcloned into the polylinker of a suitable expression vector e.g. pIC147. The Kras was obtained after expression in the E. coli strain, BL21. […]
Assays were performed in 96 well plates as follows: 10 μl of test compound solution was added to each well. […] Precipitated protein was then collected onto glass fibre filter mats (B) using a Tomtec™ cell harvester and tritiated label was measured in a Wallac™1204 Betaplate scintillation counter. […]

| Compound | melting point | IC50 [1] |
| --- | --- | --- |
| COC(=O)[C@H](CCSC)NC(=O)c1ccc(NC(Cn2ccnc2)c2ccc(F)cc2)cc1-c1ccc(F)cc1 (stereo partly drawn) [Example 2, Methyl (2S)-2-{2-(4-fluorophenyl)-4-[1-(4-fluorophenyl)-2-(imidazol-1-yl)ethylamino]benzoylamino}-4methylsulfanylbutyrate] | 94 to 98 °C |  |
| CSCCC(NC(=O)c1ccc(NC(Cn2ccnc2)c2ccc(F)cc2)cc1-c1ccccc1)C(=O)O [Example 6, (2S)-2-{2-Phenyl-4-[1-(4-fluorophenyl-2-imidazol-1-yl)ethylamino]benzoylamino}-4-methylsulfanylbutyric acid] |  | ~2 nM |
| CSCC[C@H](NC(=O)c1cc(NC(Cn2ccnc2)c2ccc(F)cc2)ccc1CCc1ccc(F)cc1)C(=O)O (stereo partly drawn) [Example 8, (2S)-2-{5-[1-(4-Fluorophenyl)-2-(imidazol-1-yl)ethylamino]-2-(4-fluorophenethyl)benzoylamino}-4-methylsulfanylbutyric acid] | 115 to 120 °C |  |
| CSCC[C@H](NC(=O)c1cc(NC(Cn2ccnc2)c2ccc(F)cc2)ccc1Cc1ccc(F)cc1)C(=O)O (stereo partly drawn) [Example 10, (2S)-2-{5-[1(4-Fluorophenyl)-2-(imidazol-1-yl)ethylamino]-2-(4-fluorobenzyl)benzoylamino}-4-methylsulfanylbutyric acid] | 130 to 135 °C |  |
